The source of these data is paper PMC12090776 (2025).

For assay [1], the target named is SINV 6K (Sindbis virus, UniProt P03316). Put plainly: UV-Vis absorption of retained compound after overnight dialysis. The settings on record: 3-4x molar excess compound, 1 h on ice, pH 7.6, 0.015% DDM; EGFP negative control. The class given is binding.
Assay [2] has as its target SARS-CoV-2 E (Severe acute respiratory syndrome coronavirus 2, UniProt P0DTC4). The class given is binding.

SINV 6K, sequence (P03316 752-806): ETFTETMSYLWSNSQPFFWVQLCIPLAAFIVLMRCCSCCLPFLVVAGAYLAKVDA
SARS-CoV-2 E, sequence (P0DTC4 whole entry): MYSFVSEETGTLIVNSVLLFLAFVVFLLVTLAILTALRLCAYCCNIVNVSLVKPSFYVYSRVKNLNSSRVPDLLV

For `N=C(N)NC(=O)c1nc(Cl)c(N2CCCCCC2)nc1N` [HMA], the “UV-Vis absorption of retained compound after overnight dialysis” value in assay [1] is “Both 6K (Fig. 2B) and E (Fig. 2C) proteins bind to the compounds”; in assay [2], “Both 6K (Fig. 2B) and E (Fig. 2C) proteins bind to the compounds”.
With `CCN(c1nc(N)c(C(=O)N=C(N)N)nc1Cl)C(C)C` [EIPA], the “UV-Vis absorption of retained compound after overnight dialysis” value was “Both 6K (Fig. 2B) and E (Fig. 2C) proteins bind to the compounds” in assay [1]; “Both 6K (Fig. 2B) and E (Fig. 2C) proteins bind to the compounds” in assay [2].
